pIC50: −log10 of the molar value. Counter-ions that a name gives are not always drawn.
Legend:
[1] = system: conA stimulated spleen cells (T lymphocytes) from female Balb/c mice; experiment: Assay B: Suppression of Mitogen-Stimulated Proliferation (Murine) (Culture Conditions II); type: cell-based, Murine (Balb/c mice); settings: Mus musculus, T-lymphocyte, 72 h; conA 1 ug/ml, 10^5 cells per well, 3 days, MTT
Text: Assay B: Suppression of Mitogen-Stimulated Proliferation(Murine)(Culture Conditions II.)
It is known that lymphocyte activation can be polyclonally stimulated by plant lectins and other mitogenic substances that induce blast transformation and mitosis. The plant lectin concanavalin A (conA) preferentially induces activation and proliferation of T lymphocytes. Exposure of T cells to conA results in polyclonal T cell activation, and this response can be used to determine the in vitro index of immunomodulatory effects of test compounds on pan-T cell activation. Spleen cells were harvested asceptically from female Balb/c mice, and cells were extruded by compression in phosphate buffered saline (pH 7.0). Cells were pelleted by centrifugation (300×g/5 min) and erythrocytes were lysed by resuspension of the splen cells in a hypotonic solution (5 ml per spleen) containing 0.14M NH4 Cl and 0.017M Tris base, pH 7.2, and incubation for 5 min. An equal volume of freshly prepared medium [lscovels modified Dulbecco's medium containing 2 mM L-glutamine, 5% heat inactivated (56° C./45 min) fetal bovine serum and 40 uM 2-mercaptoethanol] .was added to stop cell lysis. The remaining cells were pelleted, resuspended in medium, filtered through a cotton plug to remove debris, and the leukocytes were then counted. Leukocytes (10^5 cells per 10 ul per well) were incubated at 37° C. in a 95% air/[…] atmosphere in 96 well microtiter plates for 3 days. At the start of culture conA (1 ug/ml, SIGMA Chemical Co., St. Louis, Mo.) alone or in combination with test compound (0.0001-60 uM final) or vehicle control (0.6% DMSO or ethanol). All test compounds were dissolved in 95% ethanol or 100% DMSO, and subsequent dilutions were prepared in media. Inhibition of conA stimulated T cell proliferation was measured using a calorimetric indicator of cell growth and proliferation, MTT [3-(4,5-dimethylthiazol-2-yl)-2 diphenyltetrazolium bromide; 100 ul of a 1 mg/ml solution per well, SIGMA][Mosmann, T., 1988. J. Immunol. Methods 65, 55-63.]Cells were loaded with MTT dye at 37° C. for 4 hours; media supernatants were then aspirated from the cell pellets. MTT loaded cells were solubilized in isopropanol (150 ul per well). Light absorbance was measured at a test wavelength of 570 nm and a reference wavelength of 650 nm using a spectrophotometer. EC50 values for immunosuppressive compounds were estimated by four parameter logistical regression analysis of the optical density data [Delean, A., Munson, P. J. and D. Robard, 1978. Am,. J. Physiol. 235:397.

[2] = system: ConA-stimulated spleen cells (T-cells) from female Balb/c mice; experiment: Assay A: Suppression of Mitogen-Stimulated Proliferation (Murine) (Culture Conditions I); type: cell-based, Murine (Balb/c mice); settings: Mus musculus, T-cell, 120 h; ConA 1.0 μg/ml, 10^5 cells/well, 5 days, MTT
Text: Assay A: Suppression of Mitogen-Stimulated Proliferation (Murine)(Culture Conditions I)
Lymphocyte activation can be polyclonally stimulated by plant lectins and other mitogens that induce blast transformation and mitosis. Certain mitogens like Concanavalin A (ConA), preferentially activate T-lymphocytes. Exposure to ConA results in polyclonal activation of T-cells and can be used as an in vitro index for general immunomodulation of pan T-cell activity. In this assay spleen cells harvested from female Balb/c mice were incubated at 37° C., in 95% air/5% CO2 atmosphere in 96 well microtiter plates (10^5 cells/well) for 5 days with Iscove's modified Dulbecco's medium [25 mM HEPES […] L-glutamine, 5% fetal bovine serum and 2-mercaptoethanol (40 μM)], concanavalin A (ConA) alone (Sigma, St. Louis, Mo.; 1.0 μg/ml) or ConA in the presence of test compounds (0.001-25 μM). Inhibition of ConA-stimulated proliferation was measured by addition of the calorimetric indicator of growth metabolic activity or viability, MTT (3-(4,5-dimethylthiazol-2-yl)-2 diphenyl tetrazolium bromide; (100 μl/well, 1 mg/ml) Sigma) [Mosmann, T., J. of Immunological Methods, 65, 55-63, 1988]. After four hours, plates were centrifuged (1200 rpm) media supernatants aspirated and dye loaded cells were solubilized in isopropanol (150 μl/well). The absorbance was measured on an ELISA plate reader with a test wavelength of 570 nm and a reference of 630 nm. The IC50 values for active immunosuppressant compounds were calculated by four parameter logistic regression analysis of the results [Delean et al, Am. J. Physiol., 235, 397 (1978)].

[3] = system: human peripheral blood mononuclear cells; experiment: Assay C: One-Way Mixed Lymphocyte Reaction (Human); type: cell-based; settings: mitomycin-C inactivated Raji stimulator cells, 120 hours, 3H-thymidine incorporation
Text: Assay C: One-Way Mixed Lymphocyte Reaction (Human)
The mixed lymphocyte reaction (MLR) is an assay that measures T-cell activation and mitosis which occurs when lymphocytes from different major and minor histocompatibility complex (MHC) haplotypes are cocultured. This response is considered a "one-way MLR" when stimulator cells are made unresponsive by inhibition of DNA synthesis (treatment with mitomycin-C or gamma-irradiation) prior to coculture with responder cells. This assay can be used as an indicator of the cellular immunomodulation mechanisms involved in transplant rejection. In this assay, human peripheral blood mononuclear cells(PMNC) were used as the responder cell population and were isolated from normal donor blood as follows: Blood samples were collected in LeucoPREP™ tubes (Becton Dickinson, Lincoln Park, N.J.) and the mononuclear cell preparation was obtained by following the manufacturers procedures. Isolated mononuclear cells were co-incubated at 6×10^4 cells/well with a stimulator cell line at 2×10^4 cells/well in RPMI 1640 medium containing 5% fetal bovine serum and 2-mercaptoethanol (40 μM). The stimulator cell line, Raji, which was derived from a human Burkitt lymphoma (American Type Culture Collection, Rockville Md.) was previously inactivated by mitomycin-C treatment (Sigma, St. Louis Mo., 25 μg/ml, 37° for 30 minutes). After repeated washings of mitomycin-C from the stimulator cell line, cocultures were incubated in 96 well microtiter plates at 37° C., in 95% air/5% CO2 atmosphere for 120 hours in the presence or absence of test compounds (0.1-25 μM). Inhibition of proliferation was measured by reduced incorporation of ^3 H-thymidine (0.5 μCi/well, added during the last 24 hours of the assay). The IC50 values for the immunosuppressant compounds were calculated by four parameter logistic regression analysis of the results [Delean et al, Id.]

[4] = literature, Acta. Pharmacologica Sinica, 11(3), 281-285 (1990); cited from earlier work

| pIC50 [3] | Structure (SMILES) | pIC50 [1] | pIC50 [2] | acute and chronic antiinflammatory effects [4] |
| --- | --- | --- | --- | --- |
|  | CC(C)C(C#N)(CCCN(C)Cc1ccccc1)c1ccc(F)c(F)c1 (racemic) [Example 1, (±)-3,4-difluoro-α-(1-methylethyl)-α-[3-[methyl(phenylmethyl)amino]propyl]benzeneacetonitrile] | 5.62 |  |  |
| 5.14 | CC(C)C(C#N)(CCCN(C)Cc1ccccc1)c1ccc(F)cc1 (racemic) [Example 2, (±)-4-fluoro-α-(1-methylethyl)-α-[3-[methyl (phenylmethyl)amino]propyl]benzeneacetonitrile, monohydrochloride] | 5.28 | 5.66 |  |
| 5.32 | CC(C)C(C#N)(CCCN(C)CCc1ccccc1)c1ccc(F)cc1 (racemic) [Example 3, (±)-4-fluoro-α-(1-methylethyl)-α-[3-[methyl(2-phenylethyl)amino]propyl]benzeneacetonitrile, monohydrochloride] | 5.49 | 6.00 |  |
| 5.64 | CN(CCCC(C#N)(c1ccc(F)cc1)C1CCCC1)Cc1ccccc1 (racemic) [Example 4, (±)-α-cyclopentyl-4-fluoro-α-[3-(methyl(phenylmethyl)amino]propyl]benzeneacetonitrile, monohydrochioride] | 5.32 | 5.49 |  |
| 5.68 | CC(C)C(C#N)(CCCCN(C)Cc1ccccc1)c1ccc(F)cc1 (racemic) [Example 5, (±)-4-fluoro-α-(1-methylethyl)-α-[4-(methyl (phenylmethyl)amino]butyl]benzeneacetonitrile, monohydrochloride] | 5.75 | 6.05 |  |
|  | CC(C)C(C#N)(CCCCCN(C)Cc1ccccc1)c1ccc(F)cc1 (racemic) [Example 6, (±)-4-fluoro-α-(1-methylethyl)-α-[5-methyl(phenylmethyl)amino]pentyl]benzeneacetonitrile] | 6.03 | 6.30 |  |
| 5.54 | CC(C)C(C#N)(CCCN(C)Cc1ccccc1)c1ccccc1F (racemic) [Example 8, (±)-2-fluoro-α-(1-methylethyl)-α-[3-[methyl (phenylmethyl)amino]propyl]benzeneacetonitrile, monohydrochloride] | 5.47 | 5.85 |  |
|  | CC(C)C(C#N)(CCCN(C)Cc1ccccc1)c1c(F)cccc1F (racemic) [Example 9, (±)-2,6-difluoro-α-(1-methylethyl)-α-[3-[methyl(phenylmethyl)amino]propyl]benzeneacetonitrile, monohydrochloride] | 5.38 |  |  |
|  | CC(C)C(C#N)(CCCN(Cc1ccccc1)Cc1ccccc1)c1ccc(F)cc1 (racemic) [Example 10, (±)-α-[3-[bis(phenylmethyl)amino]propyl]-4-fluoro-α-(1-methylethyl)benzeneacetonitrile, monohydrochloride] | 4.87 |  |  |
|  | COC(=O)C1=C(C)NC(C)=C(C(=O)OCCN(C)Cc2ccccc2)C1c1cccc([N+](=O)[O-])c1 (stereo not shown) [nicardipine] |  |  | dose-dependent acute and chronic antiinflammatory effects |
|  | COC(=O)C1=C(C)NC(C)=C(C(=O)OC)C1c1ccccc1[N+](=O)[O-] [nifedipine] |  |  | dose-dependent acute and chronic antiinflammatory effects |

— US6265439A, “Halogenated phenylacetonitrile alkylaminoalkylphenyl compounds as immunosuppressives” (G.D. Searle & Co., priority 2000, dated 2001)
